Test results from US20070219272A1, “Novel method and compositions for treatment of tinnitus” (priority 2006, published 2007).

What was measured:
[1] = system: patients with Ménière's disease; assay: Randomized, double blind, placebo-controlled cross-over clinical trial: tinnitus loudness after intratympanic injection; format: in vivo, human; conditions: for Effect on tinnitus loudness: intratympanic injection; for Reduction of tinnitus loudness in decibels, Day 5: Day 5 after initiation; for Reduction of tinnitus loudness in decibels, Day 5 / Reduction of tinnitus loudness in decibels, Day 15 / Reduction of tinnitus loudness in decibels, Day 29: intratympanic once daily for 3 days, vs placebo, baseline-corrected, mean ± SEM, lithium salt 450 μg/ml, isopropyl ester 50 μg/ml; for Reduction of tinnitus loudness in decibels, Day 15: Day 15 after initiation; for Reduction of tinnitus loudness in decibels, Day 29: Day 29 after initiation
Description: The invention is exemplified by the following non-limiting example based on a recently performed clinical trial: Patients suffering from unilateral Ménière's disease were enrolled in a randomized, double blind, placebo-controlled clinical trial. The study followed a cross-over protocol. The patients received an intratympanic injection (injection into the middle ear cavity) of latanoprost lithium salt or placebo once daily during the three first days of each treatment period. The effect on hearing and tinnitus loudness was measured on Days 5, 15 and 29. Thereafter there was a treatment-free cross-over period of 2 months. After the cross-over period the patient entered the second treatment period and latanoprost lithium salt or placebo was again administered by intratympanic injection once daily during the three first days, and the same measurements of hearing and tinnitus were repeated. Latanoprost lithium salt was tested at 50 μg/ml, 150 μg/ml and 450 μg/ml concentration, and in addition one group of patients received latanoprost (isopropyl ester) at 50 μg/ml concentration according to the same cross-over study protocol.

[2] = system: patients suffering from Ménière's disease; conditions: cited from earlier work
Lipophilicity comparison = format: physicochemical; conditions: ratio isopropyl ester / lithium salt
Description: Although the concentration of latanoprost lithium salt was 9 times higher than the concentration of latanoprost (isopropyl ester) we believe that the main additional effect (compared with latanoprost) is based on the lithium salt because the lipophilicity of latanoprost (isopropyl ester) is more than 1000 times higher than the lipophilicity of the latanoprost lithium salt. Consequently the ester can be expected to traverse biological membranes such as the round window membrane much better than the water-soluble salt. […] The concentration of 450 μg/ml of latanoprost lithium salt corresponds to approximately 1 mM lithium, i.e. a concentration within the therapeutic range of lithium. The lower concentrations 150 μg/ml and 50 μg/ml of latanoprost lithium salt had no effect which can be anticipated if the effect on tinnitus loudness at least partly is based on the pharmacological effect of lithium since the two lower concentrations are below the therapeutic concentration range of lithium.

[3] = man; lower ineffective, above 1.5 mM side effects may arise; cited from earlier work

Lipophilicity relative to latanoprost lithium salt (Lipophilicity comparison) | SMILES | Effect on tinnitus loudness ([1]; 50 μg/ml) | Effect on tinnitus loudness ([1]; 150 μg/ml) | Reduction of tinnitus loudness in decibels, Day 5 [1] | Reduction of tinnitus loudness in decibels, Day 15 [1] | Reduction of tinnitus loudness in decibels, Day 29 [1] | Effect on hearing [2] | Effect on vertigo [2] | Effect on tinnitus ([2]; intratympanic injection) | Therapeutic plasma concentration [3]
– | O=C([O-])CCC/C=C\C[C@@H]1[C@@H](CC[C@@H](O)CCc2ccccc2)[C@H](O)C[C@@H]1O.[Li+] [Latanoprost acid lithium salt, latanoprost acid lithium salt] | no effect | no effect | −10.8 ± 3.5 decibels | −15.4 ± 6.4 decibels | −10.5 ± 3.9 decibels | – | – | – | –
more than 1000 times | CC(C)OC(=O)CCC/C=C\C[C@@H]1[C@@H](CC[C@@H](O)CCc2ccccc2)[C@H](O)C[C@@H]1O [Latanoprost isopropyl ester, latanoprost] | – | – | −5.5 ± 2.7 decibels | −9.5 ± 5.8 decibels | −9.6 ± 4.6 decibels | improved hearing | reduced vertigo | may reduce tinnitus | –
– | [Li] [Lithium, lithium] | – | – | – | – | – | – | – | – | 0.5 to 1.5 mM
